Test results taken from patent US12497399B2, “Fluorinated integrin antagonists” (OcuTerra Therapeutics, Inc., priority 2013, dated 2025).

Key:
[1] = system: αv integrin; test: Cell adhesion assay: RAEC adhesion to vitronectin coated plates; type: cell-based; details: rabbit aortic endothelial cells, 1.5 h at 37° C., read-out: IC50 to block adhesion of RAEC to vitronectin
Procedure: (§1) The ability of compounds to block adhesion of three primary cell cultures: human dermal microvascular endothelial (HMVEC), rat lung microvascular endothelial (RLMVEC), and rabbit aortic endothelial (RAEC) cells, to vitronectin coated plates was determined using the following procedure.
(§2) Adhesion plates preparation. 96-well plates were coated with vitronectin in PBS, pH 7.4 by incubating 50 μL of the solution (10 μg/ml) for 1.5 h at room temperature or overnight at 4° C. The plates then were blocked with 1% BSA in PBS (30 min at room temperature) and washed with PBS.
(§3) Cell culturing and loading. HMVEC cells (passages (p)9-14) (from Lonza, Allendale, NJ) RLMVEC cells (p4-14) (from Vec Technology, Rensselaer, NY) and RAEC cells (p4-14) (from CellBiologics, Chicago, IL) were used for the compound testing. Cells were grown in T175 tissue culture flasks and dislodged by gentle 3 min treatment with Accutase (Life Technologies). After washing, the cells in suspension in RPMI-1640 (Life Technologies) were loaded with calcein-AM (5 μM) (Life Technologies) for 30 min at 37° C. and re-suspended into RPMI w/o phenol red medium containing 10% FBS.
(§4) Adhesion assay. The cell suspension was aliquoted into the wells at a density of 1.0×10^5 cells/well (RLMVEC) and 5.0×10^4 (HMVEC, and RAEC). The test compounds are added at the same time with the cells. The plates are incubated for 1.5 h at 37° C. […] The wash was performed by 2 cycles of aspiration of the supernatant and addition of 100 μL of the pre-warmed fresh DPBS (Life Technologies). A fluorescence of the remaining cells is measured using multimode plate reader (Victor 2V, PerkinElmer) at an excitation/emission wavelengths of 485/535 nm. The compounds were tested starting with maximal concentration of 1 μM with half-log dilution schedule. IC50 values were calculated with Prism 5 (GraphPad, CA) by fixing the bottom of the curves to a value of blank for empty wells fluorescence.

[2] = system: αv integrin; test: Cell adhesion assay: RLMVEC adhesion to vitronectin coated plates; type: cell-based; details: rat lung microvascular endothelial cells, 1.5 h at 37° C., read-out: IC50 to block adhesion of RLMVEC to vitronectin
Procedure: as §1, §2, §3, §4

[3] = target: T1, αv integrin (Homo sapiens, UniProt P06756); test: Cell adhesion assay: HMVEC adhesion to vitronectin coated plates; type: cell-based; details: human dermal microvascular endothelial cells, 1.5 h at 37° C., read-out: IC50 to block adhesion of HMVEC to vitronectin
T1 construct: three primary cell cultures; host or cells: HMVEC primary human dermal microvascular endothelial cells, passages 9-14
Procedure: as §1, §2, §3, §4

[4] = Distribution in plasma, aqueous humor, vitreous humor and retina after topical ocular administration; type: in vivo, Dutch Belted rabbits; details: 50 μL/eye, 1.0-2.5 mg/mL, 0.5 or 1.0 and 8 hours, FIGS. 2, 3, 4
Procedure: The plasma concentrations and ocular distribution (aqueous humor, vitreous humor, and retina) of Compounds A1, A2, and A3 were determined following topical ocular administration in Dutch Belted rabbits. […] Aqueous humor, vitreous humor, and retina were collected from each eye at each time point post-dose. Also, weights were recorded. Plasma and ocular sample concentrations of the compounds were determined by LC-MS/MS.
Animal Dosing: The exposure of compounds A1, A2, and A3 was evaluated in Dutch Belted rabbits. The study was not blinded. Each compound was dosed as n=3/time point for a total of nine rabbits. Rabbits were housed one per cage. Animals were not fasted, and food and water were supplied ad libitum.
Animals were anesthetized following the 13IA5 IACUC protocol for the dosing. Each rabbit received a bolus dose of test formulation via topical ocular administration into both eyes at time zero on the day of dosing. Plasma and ocular samples were collected at pre-determined time points. Animals for the 30-minute and 1-hour time points were anesthetized for the entire duration of the study. The animals for the 8-hour time point were recovered after dosing and then euthanized for sampling purposes.
At each time point, approximately 0.5 mL of blood was collected and placed into chilled Na-heparin tubes containing citric acid. Blood samples were centrifuged at a speed of 3,000 g for 5 minutes to obtain plasma as quickly as possible. Samples were stored frozen at −80° C. until analysis. Animals were euthanized per the 13IA5 IACUC protocol and both eyes were enucleated immediately. Following enucleation, each eye was rinsed with PBS. Ocular samples from both eyes of each animal were collected and weights were recorded. All the samples were frozen immediately on dry ice, and stored at −60 to −80° C. for analysis.
Analysis of Plasma and Ocular Samples: An LC-MS/MS method was developed for the determination of Compounds A1, A2, and A3 in rabbit plasma and ocular samples.

[5] = system: laser-induced choroidal neovascularization; test: Laser-induced choroidal neovascularization (CNV) model; type: in vivo, Dutch Belted rabbits; details: twice daily topical administration, 50 μL; fluorescein angiography day 35; FIG. 5
Procedure: Healthy male animals weighing between 1.5 and 2.0 kg were used in these studies. Animals were weighed prior to dosing and at euthanasia, and more often if needed. Baseline fundus photography and fluorescein angiography was performed on each animal prior to CNV induction.
Animals were anesthetized with an intramuscular injection of ketamine hydrochloride (20 mg/kg) and xylazine (2 mg/kg) for CNV induction, fundus photography, fluorescein angiography, and intravitreal (IVT) injections. Rabbits were maintained on isoflurane (approximatelyl to 3%) in oxygen (approximately 1 to 2 L/min) as necessary. One drop of topical proparacaine hydrochloride anesthetic (0.5%) was placed in each eye before procedures. Additional topical ocular anesthesia was utilized during the procedure if needed.
CNV was induced by laser photocoagulation treatment. […]
Clinical ophthalmic exams (slit-lamp biomicroscopy and indirect ophthalmoscopy), fundus photography, and fluorescein angiography were performed at baseline and then weekly for up to 6 weeks post-induction. Exams were scored using the McDonald-Shadduck Score System. […]
At the conclusion of the study, animals were euthanized per the 13C232Q3 IACUC protocol and both eyes enucleated immediately. […] Ocular samples (aqueous humor, vitreous humor retina and choroid) from both eyes of each animal were collected and weights were recorded. […]

[6] = system: chick chorioallantoic membrane (CAM); test: Chick chorioallantoic membrane (CAM) anti-angiogenic assay; type: in vivo; details: gelatin sponge graft with test compound and 50 ng VEGF; FIG. 1
Procedure: CAM surfaces were grafted with gelatin sponges impregnated with the concentrations of test compounds and 50 ng VEGF dissolved in PBS. Untreated CAM received only VEGF and PBS. Error bars represent SEM, N=5, P values for the treated groups were calculated by comparing with the untreated group (*p<0.05, **p<0.01, ***p<0.001). Test Substance Preparation: Test samples and standards were dissolved in PBS and sterilized by passing through a syringe filter (0.22 μm). hVEGF(SIGMA) 50 ng/μl was prepared in sterile PBS. Grafting: Gelatin sponge (Abogel) was cut in approximately 2 mm^3 pieces and loaded with required test substance or PBS and VEGF. The graft was placed on the CAM. Eggs: Fertile hen eggs were procured from a hatchery and were cleaned and decontaminated using alcohol. 1 ml of albumin was removed using a syringe and incubated for 8 days. Grafts were placed on developing CAMs and further incubated to day 12. On day 12, CAMs were fixed with 4% formaldehyde in PBS, dissected and imaged. Imaging: Fixed CAMs were imaged under constant illumination and magnification under a stereomicroscope fitted with a digital camera (CANON). Image analysis: Images were analyzed on MS PowerPoint keeping the image size constant. A ring was drawn around the graft and the size was kept constant. Blood vessels crossing the ring were counted for each test group.

T1 sequence (P06756 31-1048): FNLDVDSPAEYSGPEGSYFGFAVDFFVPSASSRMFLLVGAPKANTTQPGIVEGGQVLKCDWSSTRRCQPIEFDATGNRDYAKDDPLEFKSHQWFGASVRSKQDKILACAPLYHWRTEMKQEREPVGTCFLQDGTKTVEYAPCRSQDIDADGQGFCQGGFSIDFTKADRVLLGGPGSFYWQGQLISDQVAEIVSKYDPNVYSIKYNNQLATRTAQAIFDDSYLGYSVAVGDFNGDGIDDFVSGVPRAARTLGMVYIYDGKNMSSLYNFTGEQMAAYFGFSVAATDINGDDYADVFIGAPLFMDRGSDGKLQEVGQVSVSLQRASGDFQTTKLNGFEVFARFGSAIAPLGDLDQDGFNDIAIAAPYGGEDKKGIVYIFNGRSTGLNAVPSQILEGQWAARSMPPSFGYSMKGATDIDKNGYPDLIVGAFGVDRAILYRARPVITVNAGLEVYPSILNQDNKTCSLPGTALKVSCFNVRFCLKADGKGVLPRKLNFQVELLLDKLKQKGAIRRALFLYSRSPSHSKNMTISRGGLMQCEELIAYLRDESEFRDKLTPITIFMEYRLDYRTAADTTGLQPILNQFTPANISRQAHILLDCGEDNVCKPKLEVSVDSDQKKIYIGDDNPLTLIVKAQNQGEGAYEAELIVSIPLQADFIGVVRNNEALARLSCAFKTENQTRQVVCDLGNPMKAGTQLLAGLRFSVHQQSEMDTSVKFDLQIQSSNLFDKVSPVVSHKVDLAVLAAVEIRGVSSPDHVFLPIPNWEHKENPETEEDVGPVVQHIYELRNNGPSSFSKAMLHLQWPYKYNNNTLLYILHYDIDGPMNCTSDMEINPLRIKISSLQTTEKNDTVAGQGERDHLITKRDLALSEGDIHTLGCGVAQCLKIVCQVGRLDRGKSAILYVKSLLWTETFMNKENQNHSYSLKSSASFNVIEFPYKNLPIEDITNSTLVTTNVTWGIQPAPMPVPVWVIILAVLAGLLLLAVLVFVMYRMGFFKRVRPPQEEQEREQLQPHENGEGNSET

SMILES	IC50 [1] [nM]	IC50 [2] [nM]	IC50 [3] [nM]	distribution to the retina [4]	reduction of laser-induced choroidal neovascularization vs vehicle control [5]	anti-angiogenic activity: number of blood vessels vs untreated control [6]
O=C(O)CC(CCCCCCc1ccc2c(n1)NCCC2)c1ccc(OC(F)F)nc1 (stereo not shown) [Compound A3, 3-(6-(difluoromethoxy)pyridin-3-yl)-9-(5,6,7,8-tetrahydro-1,8-naphthyridin-2-yl)nonanoic Acid]	59	230	620	efficiently distributed to the retina		
O=C(O)C[C@@H](c1ccc(OC(F)F)nc1)N1CCN(CCCc2ccc3c(n2)NCCC3)C1=O [Compound A1, (S)-3-(6-(difluoromethoxy)pyridin-3-yl)-3-(2-oxo-3-(3-(5,6,7,8-tetrahydro-1,8-naphthyridin-2-yl)propyl)imidazolidin-1-yl)propanoic acid]	8.4	31	9.4	efficiently distributed to the retina	effectively reduced laser-induced choroidal neovascularization	significantly decreases the number of blood vessels
O=C(O)CC(CCCCCCc1ccc2c(n1)NCCC2)c1cnc2cc(F)c(F)cc2c1 (stereo not shown) [Compound A6, 3-(6,7-difluoroquinolin-3-yl)-9-(5,6,7,8-tetrahydro-1,8-naphthyridin-2-yl)nonanoic Acid]	44	5.5	44			

More lines, in order of falling IC50 [1], values ahead:

IC50 [1] [nM]	IC50 [2] [nM]	IC50 [3] [nM]	distribution to the retina [4]	SMILES	reduction of laser-induced choroidal neovascularization vs vehicle control [5]	anti-angiogenic activity: number of blood vessels vs untreated control [6]
210	400	130		O=C(O)CC(CCCCCCc1ccc2c(n1)NCCC2)c1cnc2cc(C(F)(F)F)ccc2c1 (stereo not shown) [Compound A7, 9-(5,6,7,8-tetrahydro-1,8-naphthyridin-2-yl)-3-(7-(trifluoromethyl)quinolin-3-yl)nonanoic Acid]		
20	37	250		O=C(O)CC(CCCCCCc1ccc2c(n1)NCCC2)c1cnc2cc(F)ccc2c1 (stereo not shown) [Compound A5, 3-(7-fluoroquinolin-3-yl)-9-(5,6,7,8-tetrahydro-1,8-naphthyridin-2-yl)nonanoic Acid]		
16	68	160	efficiently distributed to the retina	O=C(O)CC(CCCCCCc1ccc2c(n1)NCCC2)c1cnc(C(F)(F)F)nc1 (stereo not shown) [Compound A2, 9-(5,6,7,8-tetrahydro-1,8-naphthyridin-2-yl)-3-(2-(trifluoromethyl)pyrimidin-5-yl)nonanoic Acid]	effectively reduced laser-induced choroidal neovascularization	significantly decreases the number of blood vessels
8.5	32	42		O=C(O)CC(CCCCCCc1ccc2c(n1)NCCC2)c1cnc2ccc(F)cc2c1 (stereo not shown) [Compound A4, 3-(6-fluoroquinolin-3-yl)-9-(5,6,7,8-tetrahydro-1,8-naphthyridin-2-yl)nonanoic Acid]		
